Tested on: Pichia stipitis UC7 NRRL Y-21448
Test: Testing for sensitivity to Zeocin: plating on YPD pH 7.5 with Zeocin
Format: cell-based
Details: plated on YPD pH 7.5; Zeocin tested from 25 μg/ml to 500 μg/ml
Method: Pichia stipitis UC7 NRRL Y-21448 (2) is a ura3 auxotrophic mutant of P. stipitis CBS 6054 (ARS Culture Collection, NRRL USDA Peoria, Ill.). To test if Pichia stipitis UC7 is sensitive to Zeocin, UC7 was plated on YPD (Kaiser, Michaelis and Mitchell, 1994) pH 7.5 (1% yeast extract, 2% peptone, 2% dextrose, NaOH to pH 7.5) in the presence of Zeocin (Invitrogen) at a concentration of from 25 μg/ml to 500 μg/ml. Zeocin concentrations of 100 μg/ml or greater killed Pichia stipitis UC7.

Cc1c(N)nc([C@H](CC(N)=O)NC[C@H](N)C(N)=O)nc1C(=O)N[C@H](C(=O)N[C@H](C)[C@@H](O)[C@H](C)C(=O)N[C@H](C(=O)NCCC1=N[C@@H](c2nc(C(=O)NCCCCN=C(N)N)cs2)CS1)[C@@H](C)O)[C@@H](O[C@@H]1O[C@@H](CO)[C@@H](O)[C@H](O)[C@@H]1O[C@H]1O[C@H](CO)[C@@H](O)[C@H](OC(N)=O)[C@@H]1O)c1cnc[nH]1 [Zeocin]
Zeocin concentrations that killed Pichia stipitis UC7: ≥ 100 µg/mL

From patent publication US7501275B2, “Yeast transformation system” (The United States of America as represented by the …, priority 2004, dated 2009)
